Data from patent US10647694B2, “Diphenylaminopyrimidine and triazine compound, and pharmaceutical composition and use thereof” (ARROMAX PHARMATECH CO., LTD., priority 2016, dated 2020).

What follows are molecules tested against ALK enzyme (Homo sapiens, UniProt Q9UM73) (assay: In-vitro ALK kinase inhibitory activity (HTRF kinEASE TK kit)). Conditions: inhibitory activity for ALK enzyme, read-out: IC50 range.
Type: biochemical
Method: Anaplastic Lymphoma Kinase (ALK) Inhibitory Activity The in-vitro kinase assay was performed using the HTRF kinEASE TK kit available from Cisbio. The operation steps are indicated in the instructions of the kit. This method was used to detect the inhibitory effect of the compound to be tested on the activity of ALK enzymes in vitro, including wild-type ALK (Cat.PV3867, Invitrogen), ALK L1196M (Cat. PV6168, Life technologies), and ALK F1174L (Cat. PV6160, Life technologies). The specific operation steps were as follows. […] In addition to the control wells, 4 μL of the diluted compound solution to be tested was added to the reaction wells, and 4 μL of the 2.5% DMSO solution corresponding to the ALK enzyme previously formulated was added to the control wells. (2) 2 μL of a TK-biotin substrate solution previously formulated in a substrate concentration corresponding to the ALK enzyme was added to all reaction wells. (3) 2 μL of a previously prepared enzyme solution of corresponding concentration was added to all the reaction wells except the negative wells, and 2 μL of the 1× kinase buffer corresponding to the enzyme was added to the negative wells to make up the volume. The plate was sealed with a membrane, and incubated for 10 min at room temperature after mixing uniformly, such that the compounds were bond to the enzyme fully. (4) 2 μL of an ATP solution in a concentration corresponding to the ALK enzyme was added to all the reaction wells to initiate the kinase reaction, where the enzyme reaction time by ALK was 60 minutes. (5) An ALK test solution was prepared 5 minutes before the end of the kinase reaction. Streptavidin-XL665 and TK antibody europium cryptate (1:100) solutions for assay having a concentration corresponding to the enzyme were prepared using the detection buffer in the kit. (6) After the completion of the kinase reaction, 5 μl of diluted Streptavidin-XL665 was added to all the reaction wells respectively, and mixed uniformly, and then the diluted TK antibody europium cryptate solution for assay was added immediately. (7) The plate was sealed, mixed uniformly and allowed to react at room temperature for 1 h. The fluorescence signal (excitation at 320 nm, and emission at 665 nm and 615 nm) was detected using the ENVISION instrument (Perkinelmer). The inhibition rate for each well was calculated from the values of the fully active wells and the background signal wells. The values of replicated wells were averaged, and the half-maximal inhibitory activity (IC50) of each compound to be tested was fitted with a professional drawing analysis software PRISM 5.0.

ALK enzyme, sequence (Q9UM73 19-1620 limits assumed): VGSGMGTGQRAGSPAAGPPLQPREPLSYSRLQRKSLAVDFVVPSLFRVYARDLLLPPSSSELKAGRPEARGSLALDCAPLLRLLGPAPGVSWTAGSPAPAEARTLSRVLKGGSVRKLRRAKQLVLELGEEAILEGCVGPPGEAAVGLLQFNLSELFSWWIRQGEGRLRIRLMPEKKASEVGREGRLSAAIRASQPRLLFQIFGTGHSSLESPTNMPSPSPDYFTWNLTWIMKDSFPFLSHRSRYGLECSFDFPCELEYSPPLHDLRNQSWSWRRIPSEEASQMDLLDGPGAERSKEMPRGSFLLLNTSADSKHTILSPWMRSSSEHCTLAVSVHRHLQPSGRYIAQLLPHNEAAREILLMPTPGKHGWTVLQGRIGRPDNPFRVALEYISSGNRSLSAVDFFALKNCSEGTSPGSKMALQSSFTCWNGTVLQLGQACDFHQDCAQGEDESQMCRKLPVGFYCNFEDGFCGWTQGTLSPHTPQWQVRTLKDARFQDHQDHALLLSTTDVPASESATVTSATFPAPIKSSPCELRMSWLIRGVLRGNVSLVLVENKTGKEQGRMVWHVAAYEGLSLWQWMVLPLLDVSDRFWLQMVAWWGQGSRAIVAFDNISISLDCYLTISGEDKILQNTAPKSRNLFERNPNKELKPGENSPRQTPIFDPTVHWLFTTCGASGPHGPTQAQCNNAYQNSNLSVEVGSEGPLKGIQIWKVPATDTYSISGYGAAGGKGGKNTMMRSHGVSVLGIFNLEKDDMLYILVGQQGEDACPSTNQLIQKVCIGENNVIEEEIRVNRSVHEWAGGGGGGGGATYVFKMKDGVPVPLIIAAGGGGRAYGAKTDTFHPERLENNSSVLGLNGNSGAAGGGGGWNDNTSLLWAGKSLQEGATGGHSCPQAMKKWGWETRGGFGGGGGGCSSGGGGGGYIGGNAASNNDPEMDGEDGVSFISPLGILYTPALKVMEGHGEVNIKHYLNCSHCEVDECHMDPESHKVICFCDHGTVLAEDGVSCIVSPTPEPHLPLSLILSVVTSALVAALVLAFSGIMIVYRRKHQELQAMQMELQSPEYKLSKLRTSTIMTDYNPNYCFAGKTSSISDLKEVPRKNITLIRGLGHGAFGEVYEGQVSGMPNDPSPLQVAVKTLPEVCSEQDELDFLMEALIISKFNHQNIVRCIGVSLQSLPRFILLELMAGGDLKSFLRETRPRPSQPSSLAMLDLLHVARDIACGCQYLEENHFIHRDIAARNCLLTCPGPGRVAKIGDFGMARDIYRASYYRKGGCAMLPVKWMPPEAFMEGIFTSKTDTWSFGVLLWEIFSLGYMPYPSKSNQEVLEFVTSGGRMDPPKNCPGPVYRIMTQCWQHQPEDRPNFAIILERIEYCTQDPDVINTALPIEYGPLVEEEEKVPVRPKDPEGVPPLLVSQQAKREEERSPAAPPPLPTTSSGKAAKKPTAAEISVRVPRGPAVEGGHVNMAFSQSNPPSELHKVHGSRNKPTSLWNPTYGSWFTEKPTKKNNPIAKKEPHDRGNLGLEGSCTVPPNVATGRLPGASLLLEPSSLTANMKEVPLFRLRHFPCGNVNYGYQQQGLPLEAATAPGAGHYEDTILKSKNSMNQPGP

Compound | IC50
COc1cc(C2CCNCC2)c(C)cc1Nc1nc(Nc2ccccc2S(=O)(=O)C(C)C)c2cc[nH]c2n1 [Compound I-30, N4-(2-(isopropylsulfonyl)phenyl)-N2-(2-D3-methoxy-5-methyl-4-(piperidin-4-yl)phenyl)-7H-pyrrolo[2,3-d]pyrimidin-2,4-diamine] | 10 to 100 nM
COc1cc(C2CCNCC2)c(C)cc1Nc1ncc(Br)c(Nc2ccccc2S(=O)(=O)C(C)C)n1 [Compound I-4, 5-bromo-N4-(2-(isopropylsulfonyl)phenyl)-N2-(2-D3-methoxy-5-methyl-4-(piperidin-4-yl)phenyl)pyrimidin-2,4-diamine] | 1 to 10 nM
COc1cc(C2CCNCC2)c(C)cc1Nc1nc(Nc2ccccc2S(=O)(=O)C(C)C)c2ccccc2n1 [Compound I-29, N4-(2-(isopropylsulfonyl)phenyl)-N2-(2-D3-methoxy-5-methyl-4-(piperidin-4-yl)phenyl)quinazolin-2,4-diamine] | 10 to 100 nM
COc1cc(C2CCNCC2)ccc1Nc1ncnc(Nc2ccccc2S(=O)(=O)C(C)C)n1 [Compound I-39, N2-(2-(isopropylsulfonyl)phenyl)-N4-(2-D3-methoxy-4-(4-piperidin-4-yl)phenyl)-1,3,5-triazin-2,4-diamine] | 1 to 10 nM
COc1cc(C2CCNCC2)c(C(F)(F)F)cc1Nc1ncc(Cl)c(Nc2ccccc2S(=O)(=O)C(C)C)n1 [Compound I-22, 5-chloro-N4-(2-(isopropylsulfonyl)phenyl)-N2-(2-D3-methoxy-4-(piperidin-4-yl)-5-(trifluoromethyl)phenyl)pyrimidin-2,4-diamine] | 1 to 10 nM
COc1cc(N2CCC(N3CCN(C)CC3)CC2)ccc1Nc1nc(Nc2ccccc2S(=O)(=O)C(C)C)c2cc[nH]c2n1 [Compound I-24] | 10 to 100 nM
CCOc1cc(C2CCNCC2)c(Cl)cc1Nc1ncc(Cl)c(Nc2ccccc2S(=O)(=O)C(C)C)n1 [Compound I-19, 5-chloro-N2-(5-chloro-2-D5-ethoxy-4-(piperidin-4-yl)phenyl)-N4-(2-(isopropylsulfonyl)phenyl)pyrimidin-2,4-diamine] | 1 to 10 nM
COc1cc(C2CCNCC2)c(C)cc1Nc1nc(Nc2ccccc2S(=O)(=O)C(C)C)c2ccsc2n1 [Compound I-32, N4-(2-(isopropylsulfonyl)phenyl)-N2-(2-D3-methoxy-5-methyl-4-(piperidin-4-yl)phenyl)thieno[2,3-d]pyrimidin-2,4-diamine] | 10 to 100 nM
COc1cc(C2CCNCC2)c(C)cc1Nc1ncc(Cl)c(Nc2ccccc2S(=O)(=O)C(C)C)n1 [Compound 45, reference compound] | 10 to 100 nM
COc1cc(C2CCNCC2)c(C)cc1Nc1ncc(C)c(Nc2ccccc2S(=O)(=O)C(C)C)n1 [Compound I-8, N4-(2-(isopropylsulfonyl)phenyl)-N2-(2-D3-methoxy-5-methyl-4-(piperidin-4-yl)phenyl)-5-methylpyrimidin-2,4-diamine] | 1 to 10 nM
CCc1cnc(Nc2cc(C)c(C3CCNCC3)cc2OC)nc1Nc1ccccc1S(=O)(=O)C(C)C [Compound I-9, 5-ethyl-N4-(2-(isopropylsulfonyl)phenyl)-N2-(2-D3-methoxy-5-methyl-4-(piperidin-4-yl)phenyl)pyrimidin-2,4-diamine] | 1 to 10 nM
COc1cc(N2CCC(N3CCC(N)CC3)CC2)ccc1Nc1ncc(Cl)c(Nc2ccccc2S(=O)(=O)C(C)C)n1 [Compound I-34, N2-(4-(4-amino-[1,4′-bipyridin]-1′-yl)-2-D3-methoxyphenyl)-5-chloro-N4-(2-(isopropylsulfonyl)phenyl)pyrimidin-2,4-diamine] | 1 to 10 nM
COc1cc(N2CCNCC2)ccc1Nc1ncnc(Nc2ccccc2S(=O)(=O)C(C)C)n1 [Compound I-41, N2-(2-D3-methoxy-4-(piperazin-1-yl)phenyl)-N4-(2-(isopropylsulfonyl)phenyl)-1,3,5-triazin-2,4-diamine] | 1 to 10 nM
COc1cc(C2CCNCC2)c(C)cc1Nc1ncnc(Nc2ccccc2S(=O)(=O)C(C)C)n1 [Compound I-40, N2-(2-(isopropylsulfonyl)phenyl)-N4-(2-D3-methoxy-5-methyl-4-(piperidin-4-yl)phenyl)-1,3,5-triazin-2,4-diamine] | 1 to 10 nM
COc1cc(C2CCNCC2)c(C)cc1Nc1ncc(Cl)c(Nc2ccccc2P(C)(C)=O)n1 [Compound I-38, 5-chloro-N4-(2-(dimethylphosphoryl)phenyl)-N2-(2-D3-methoxy-5-methyl-4-(piperidin-4-yl)phenyl)pyrimidin-2,4-diamine] | 1 to 10 nM
C=Cc1cnc(Nc2cc(C)c(C3CCNCC3)cc2OC)nc1Nc1ccccc1S(=O)(=O)C(C)C [Compound I-12, N4-(2-(isopropylsulfonyl)phenyl)-N2-(2-D3-methoxy-5-methyl-4-(piperidin-4-yl)phenyl)-5-ethenylpyrimidin-2,4-diamine] | 1 to 10 nM
C#Cc1cnc(Nc2cc(C)c(C3CCNCC3)cc2OC)nc1Nc1ccccc1S(=O)(=O)C(C)C [Compound I-13, 5-ethynyl-N4-(2-(isopropylsulfonyl)phenyl)-N2-(2-D3-methoxy-5-methyl-4-(piperidin-4-yl)phenyl)pyrimidin-2,4-diamine] | 1 to 10 nM
COc1cc(N2CCC(N3CCN(C)CC3)CC2)ccc1Nc1nc(Nc2ccccc2S(=O)(=O)C(C)C)c2[nH]ccc2n1 [Compound I-25] | 10 to 100 nM
COc1cc(C2CCNCC2)c(C)cc1Nc1nc(Nc2ccccc2S(=O)(=O)C(C)C)c2[nH]ccc2n1 [Compound I-31, N4-(2-(isopropylsulfonyl)phenyl)-N2-(2-D3-methoxy-5-methyl-4-(piperidin-4-yl)phenyl)-5H-pyrrolo[3,2-d]pyrimidin-2,4-diamine] | 10 to 100 nM
COc1cc(C2CCNCC2)c(C)cc1Nc1ncc([N+](=O)[O-])c(Nc2ccccc2S(=O)(=O)C(C)C)n1 [Compound I-10, N4-(2-(isopropylsulfonyl)phenyl)-N2-(2-D3-methoxy-5-methyl-4-(piperidin-4-yl)phenyl)-5-nitropyrimidin-2,4-diamine] | 1 to 10 nM
COc1cc(C2CCNCC2)c(C#N)cc1Nc1ncc(Cl)c(Nc2ccccc2S(=O)(=O)C(C)C)n1 [Compound I-23, 5-((5-chloro-4-((2-(isopropylsulfonyl)phenyl)amino)pyrimidin-2-yl)amino)-4-D3-methoxy-2-(piperidin-4-yl)benzonitrile] | 1 to 10 nM
COc1cc(N2CCC(N3CCN(C)CC3)CC2)ccc1Nc1ncnc(Nc2ccccc2S(=O)(=O)C(C)C)n1 [Compound I-43, N2-(2-(isopropylsulfonyl)phenyl)-N4-(2-D3-methoxy-4-(4-(4-methylpiperazin-1-yl)piperidin-1-yl)phenyl)-1,3,5-triazin-2,4-diamine] | 1 to 10 nM
COc1cc(C2CCNCC2)c(C)cc1Nc1ncc(C#N)c(Nc2ccccc2S(=O)(=O)C(C)C)n1 [Compound I-6] | 1 to 10 nM
COc1cc(N2CCC(N3CCSCC3)CC2)ccc1Nc1ncc(Cl)c(Nc2ccccc2S(=O)(=O)C(C)C)n1 [Compound I-33, 5-chloro-N4-(2-(isopropylsulfonyl)phenyl)-N2-(2-D3-methoxy-4-(4-thiomorpholinopiperidin-1-yl)phenyl)pyrimidin-2,4-diamine] | 1 to 10 nM
COc1cc(C2CCNCC2)c(F)cc1Nc1ncc(Cl)c(Nc2ccccc2S(=O)(=O)C(C)C)n1 [Compound I-21, 5-chloro-N2-(5-fluoro-2-D3-methoxy-4-(piperidin-4-yl)phenyl)-N4-(2-(isopropylsulfonyl)phenyl)pyrimidin-2,4-diamine] | 1 to 10 nM
COc1cc(C2CCNCC2)c(Cl)cc1Nc1ncc(Cl)c(Nc2ccccc2S(=O)(=O)C(C)C)n1 [Compound I-18, 5-chloro-N2-(5-chloro-2-D3-methoxy-4-(piperidin-4-yl)phenyl)-N4-(2-(isopropylsulfonyl)phenyl)pyrimidin-2,4-diamine] | 1 to 10 nM
COc1cc(C2CCNCC2)ccc1Nc1ncc(Cl)c(Nc2ccccc2S(=O)(=O)C(C)C)n1 [Compound I-15, 5-chloro-N2-(2-D3-methoxy-4-(piperidin-4-yl)phenyl)-N4-(2-(isopropylsulfonyl)phenyl)pyrimidin-2,4-diamine] | 1 to 10 nM
[2H]C([2H])([2H])Oc1cc(C2CCNCC2)c(C)cc1Nc1ncc(C(F)(F)F)c(Nc2ccccc2S(=O)(=O)C(C)C)n1 [Compound I-5, N4-(2-(isopropylsulfonyl)phenyl)-N2-(2-methoxy-5-methyl-4-(piperidin-4-yl)phenyl)-5-(trifluoromethyl)pyrimidin-2,4-diamine] | 1 to 10 nM
CCOc1cc(C2CCNCC2)ccc1Nc1ncc(Cl)c(Nc2ccccc2S(=O)(=O)C(C)C)n1 [Compound I-20, 5-chloro-N2-(2-D5-ethoxy-4-(piperidin-4-yl)phenyl)-N4-(2-(isopropylsulfonyl)phenyl)pyrimidin-2,4-diamine] | 1 to 10 nM
